# Measurements reported in a melting point compilation (Tetko et al.; mined from patent text by program, amines drawn as free bases though some values may be those of a salt).
row,melting point [°C],Compound
1,80 to 81,"N#CC(CN)C(CO)c1ccc(Cl)c(Cl)c1 (single isomer, unassigned; (+))"
2,200,Oc1ccc(-c2cccc(OC3SCC(O)C(O)C3O)c2)cn1 (stereo not given)
3,175 to 177,CC(=O)c1cccc2c1ncn2-c1cccc([N+](=O)[O-])c1
4,169 to 170,CSC1CCC2C3CCC4=CC(=O)C=CC4(C)C3(F)C(OC(C)=O)CC12C (stereo not given)
5,133 to 134,CNc1nc(C(C)c2ccc(-c3ccccc3)c(F)c2)c(C(=O)O)s1 (stereo not given)
6,143 to 147,CC(=O)OC1CSC(Oc2cc(Br)cnc2Cl)C(OC(C)=O)C1OC(C)=O (stereo not given)
7,218 to 219,O=C(O)CC(NS(=O)(=O)c1c(Cl)cc(Cl)cc1Cl)c1ccccc1 (stereo not given)
8,126 to 129,CCCCc1cc(NN)n2nccc2n1
9,79 to 82,CCC(CC)Oc1cc(C)nc(Nc2c(C)cc(C)cc2C)c1NC(=O)CCl
10,241 to 243,CC(=O)Nc1cc(Cn2c(C(=O)c3cc(C)cc(Cl)c3)c(C(C)C)c(=O)[nH]c2=O)ccn1
11,107 to 108,CC(C=O)n1nnc2ccc(Oc3cc(F)c(C(F)(F)F)c(Cl)c3)cc21 (stereo not given)
12,265 to 267,Oc1cc(Br)c2oc(-c3ccc(O)c(F)c3)nc2c1
13,210 to 211,N=C(Nc1cccc2ccccc12)Nc1cccc2ccccc12
14,155 to 158,O=C(O)CCC(=O)N(CCCOc1ccc(C(=O)O)cc1)c1ccc(Cl)cc1
15,181 to 182,CSc1ccc(C=C2C(C)=C(CC(=O)O)c3cc(F)c(F)cc32)cc1
16,140 to 144,OC(CN=CCc1cnc(-c2ccccc2)nc1-c1ccccc1)c1ccccc1 (stereo not given)
17,138,COc1ccc(C(=O)c2cc([N+](=O)[O-])ccc2Cl)cc1OC
18,95 to 97,O=S1(=O)c2cccc3cccc(c23)N1CCCN1CCN(c2ccc(F)cc2)CC1
19,156 to 158,CCNC(=O)c1ccc(Nc2nc(OCC3CCCCC3)c3nc[nH]c3n2)cc1
20,140,O=CNC1(c2ccccc2)CCN(Cc2ccccc2)CC1
21,135 to 136,CC(C)N(O)C(=O)Nc1cccc(S(C)=O)c1 (stereo not given)
22,127 to 128,Cc1nnc(CN(C)C)n1-c1ccc(Br)cc1C(=O)c1ccccn1

row,melting point [°C],Compound
1,183,O=C(NS(=O)(=O)c1c(F)cccc1F)N1CCC=N1
2,92.8 to 93.1,CC(C)CSc1ccc(-c2nc(=O)c3ccccc3s2)cn1
3,149 to 151,CN(CCOc1ccc(CC(Cl)C(N)=O)cc1)c1nc2ccccc2o1 (stereo not given)
4,210,O=C(O)CCc1cc(CCN2CCC(C(=O)c3ccc(F)cc3)CC2)cc2c1CCC(NS(=O)(=O)c1ccc(Cl)cc1)C2 (stereo not given)
5,173 to 174,O=Cc1ccc(-c2ccc(-c3ccc(C=O)o3)cc2)cc1
6,130,COc1ccc2c(c1)c(CC#N)cn2C(=O)OC(C)(C)C
7,204 to 206,O=c1[nH]nc(Cc2ccncn2)c2ccccc12
8,144 to 146,Cc1cccc(C)c1NC(=O)c1ccc(S(C)=O)cc1 (stereo not given)
9,154 to 156,Cc1cc(Oc2cccc([N+](=O)[O-])c2N(C)C(=O)OC(C)(C)C)cc(C)c1NC(=O)OC(C)(C)C
10,108 to 110,CCOC(=O)c1cc(SCc2ccccc2)c(Cc2ccccc2)c(S(N)(=O)=O)c1
11,208 to 210,CC12CCC(C(=O)O)=CC1=CCC1C2CCC2(C)C(C(=O)CCCc3ccccc3)CCC12 (stereo not given)
12,148 to 150,CCn1ncnc1COc1nc2c(cc1C(C)(C)C)nnn2-c1cc(F)ccc1F
13,158 to 160,CC(C)[C@H](NC(=O)OCc1ccccc1)C(=O)NC(Cc1ccccc1)C(O)C(N)Cc1ccccc1 (stereo not given in full)
14,129 to 130,CN1CCN(c2cccc(Nc3ccc(-c4ccoc4)cc3N)c2)CC1
15,205 to 207,CC(O)(c1nc2ccc(I)cc2c(=O)[nH]1)C(F)(F)F (stereo not given)
16,238 to 239,NC(=O)c1cccc([N+](=O)[O-])c1N
17,143 to 145,Cc1nc2cccc3n(CCCCCNS(=O)(=O)CC(F)(F)F)c(=O)c1n23
18,219 to 221,N#Cc1cnc2cc(-c3ccc(CN4CCOCC4)cn3)ccc2c1Nc1ccc(Oc2ccccc2)cc1
19,71 to 74,CC(C)[C@H](NC(=O)N(C)Cc1cscn1)C(=O)N[C@@H](Cc1ccccc1)[C@@H](O)C[C@H](Cc1ccccc1)NC(=O)OCc1cccnc1
20,79 to 82,CC(C)CC1(C)NCCNC1=O (stereo not given)
21,150 to 152,NCc1ccc(-c2cnc(N3CCN(C4CC4)CC3)nc2)cc1
22,> 250,O=C(Nc1ccc(F)cc1)NN1CCN(C(=O)Cn2c(=O)sc3ccc(Cl)cc32)CC1

row,melting point [°C],Compound
1,42,CNCCc1ccc2[nH]nc(S(=O)(=O)c3ccccc3)c2c1
2,126,CC(=O)Oc1cc(OCC(F)(F)C(F)(F)F)ccc1C(=O)O
3,167 to 170,CNc1c([N+](=O)[O-])ccc(Cl)c1C#N
4,272 to 274,COc1cc(-c2ccc(O)c(C(C)(C)C)c2)cc(C=C2SC(N(C)C)=NC2=O)c1O
5,180 to 182,CCN1C(=O)C(C)(C)C(=O)N(C)c2cc(CN(CCn3ccc4oc(C)cc4c3=O)Cc3ccc4c(c3)OCO4)ccc21
6,136 to 137,CCSC(=N)Nc1ccc(CCN(C)Cc2ccccc2)cc1
7,85 to 86,C#CCn1nnc(SC(c2ccccc2)c2ccccc2)n1
8,100 to 103,CCC(=CC(CNC(=O)c1c(C)noc1C)=NO)C(C)[N+](=O)[O-] (stereo not given)
9,63 to 65,Cc1cc(Cl)ccc1OC(Cn1cncn1)C(=O)C(C)(C)C (stereo not given)
10,118,CCCCc1nc2cscc2[nH]1
11,93,Cc1nc(COC(=O)c2cccnc2C#N)cs1
12,137 to 138,O=S(=O)(c1ccccc1)c1cc2cc(Cl)ccc2[nH]1
13,185 to 189,C[C@]12CCC(=O)N[C@@H]1CCc1cc(C=O)ccc12
14,91 to 93,COc1ccc(C)c(N2CCN(C(=O)N(C)c3cc(C)c(C)nc3OC)CC2)c1
15,111 to 112,COc1ccc(N2CCN(c3c(C)c(C)c4c(c3C)C(O)(c3ccco3)C(C)(C)O4)CC2)cc1 (stereo not given)
16,122,CC1(C)CS(=O)(=O)CC(C)(C)N1N
17,180 to 181,O=C(c1ccccc1F)c1cc2c(c(Cl)c1Cl)OC(C(=O)O)C2 (stereo not given)
18,228 to 230,COc1ccc2c(=O)cc[nH]c2c1O
19,197 to 198,CC(C)C(=O)N[C@H]1C[C@H](C(=O)O)Nc2cc(Cl)cc(Cl)c21 (relative stereo)
20,115 to 116,CCOc1ccc(C(=O)NC2N(C)C(c3ccc(F)cc3)=NC2(C(F)(F)F)C(F)(F)F)cc1 (stereo not given)
21,34 to 36,CCCCCCCCCCCCc1cc(C(=O)OCC)no1
22,164 to 167,CCCCCCCN(C)C(=O)Nc1ccc(F)cc1NC(=O)c1cc(C(C)(C)C)c(O)c(C(C)(C)C)c1

row,Compound,melting point [°C]
1,O=C(c1ccc(Cl)cc1)c1ccc2c(c1)C(c1cccc(Cl)c1)SCc1nnnn1-2 (stereo not given),212
2,CSc1c(C#N)nn(-c2c(Cl)cc(C(F)(F)F)cc2Cl)c1N(C)C,118 to 119
3,CC(=O)OC1CCC2C3CCC4CC(=O)CC(C)C4(C)C3CCC12C (stereo not given),179 to 180
4,CC1(C)C(=O)N(c2ccc(C#N)c(C(F)(F)F)c2)C(=O)N1CCCO,131 to 132
